According to BindingDB's records for patent US20250313563 (The Broad Institute, 2025):
Values joined by “and” are separate entries in the source; they are usually repeats but may differ in a detail not shown here. Identical values can stand only once.

Columns and labels:
[1] = molecular target: Glycogen synthase kinase-3 beta (Homo sapiens, UniProt P49841); test: TR-FRET Assay
Description: (§1) The assay was performed in a white, 384 well, low volume, flat bottom plate (Grenier). […] The kinase activity was quenched with 2 μL of 250 mM EDTA. A 10 μL volume of 40 nM Strepavidin-d2, 2 nM Tb2+-pSer641 antibody in TR-FRET Detection Buffer (Invitrogen) was then added.

[2] = molecular target: Glycogen synthase kinase-3 alpha (Homo sapiens, UniProt P49840); test: TR-FRET Assay
Description: as §1

Chain of Glycogen synthase kinase-3 alpha (P49840 whole entry): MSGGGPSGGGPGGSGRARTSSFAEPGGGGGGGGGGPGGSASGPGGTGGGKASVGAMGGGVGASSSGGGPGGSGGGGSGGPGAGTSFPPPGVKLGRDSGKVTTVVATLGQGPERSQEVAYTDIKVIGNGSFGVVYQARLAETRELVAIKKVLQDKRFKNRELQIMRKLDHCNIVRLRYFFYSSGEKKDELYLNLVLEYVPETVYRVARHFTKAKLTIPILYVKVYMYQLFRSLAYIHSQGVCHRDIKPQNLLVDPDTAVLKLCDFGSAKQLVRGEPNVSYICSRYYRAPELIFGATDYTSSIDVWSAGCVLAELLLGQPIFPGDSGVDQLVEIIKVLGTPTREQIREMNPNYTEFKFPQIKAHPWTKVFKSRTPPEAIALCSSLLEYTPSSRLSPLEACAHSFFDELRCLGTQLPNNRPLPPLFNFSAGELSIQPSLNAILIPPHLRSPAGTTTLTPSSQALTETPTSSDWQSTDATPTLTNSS
Chain of Glycogen synthase kinase-3 beta (P49841 whole entry): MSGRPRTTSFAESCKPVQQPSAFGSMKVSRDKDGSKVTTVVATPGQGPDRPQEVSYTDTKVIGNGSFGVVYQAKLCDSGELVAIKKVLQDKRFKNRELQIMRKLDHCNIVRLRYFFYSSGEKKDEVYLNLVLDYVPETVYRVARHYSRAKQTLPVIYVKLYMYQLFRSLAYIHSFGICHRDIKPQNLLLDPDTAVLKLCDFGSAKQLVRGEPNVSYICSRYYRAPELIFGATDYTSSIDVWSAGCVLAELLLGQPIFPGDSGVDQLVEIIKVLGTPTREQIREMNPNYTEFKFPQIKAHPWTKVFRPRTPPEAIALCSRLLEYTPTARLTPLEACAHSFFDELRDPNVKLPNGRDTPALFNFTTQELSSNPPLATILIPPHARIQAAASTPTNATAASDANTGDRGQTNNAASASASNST

Structure (SMILES)	IC50 [1]	IC50 [2]
CCC1(c2cccc(N(C)c3ncccn3)c2)C2=C(CC(C)(C)NC2=O)NC2N=NC(C(F)F)=C21 (configuration not stated) [US20250313563, Compound 950484]	< 0.1 µM	< 0.1 µM
CCC1(c2cccc(N(C)c3ccccn3)c2)C2=CN=NC2NC2=C1C(=O)CC(C)(C)C2 (configuration not stated) [US20250313563, Compound 874294]	0.1 to 1 µM	< 0.1 µM
CC[C@@]1(c2ccccc2)C2=CN=NC2NC2=C1C(=O)C[C@@H](C)C2 (some centres not stated) [US20250313563, Compound 789013]	> 5 µM	0.1 to 1 µM
CC[C@]1(c2ccccc2)C2=CN=NC2NC2=C1C(=O)[C@H](C)C[C@@H]2C (some centres not stated) [US20250313563, Compound 909216]	0.1 to 1 µM	0.1 to 1 µM
CC[C@@]1(c2cccc(N(C)c3ncccn3)c2)C2=CN=NC2NC2=C1C(=O)NC(C)(C)C2 (some centres not stated) [US20250313563, Compound 943965]	> 5 µM	0.1 to 1 µM
CC[C@@]1(c2cccc(-c3ccncc3F)c2)C2=C(CC(C)(C)NC2=O)NC2N=NC(C)=C21 (some centres not stated) [US20250313563, Compound 947821]	< 0.1 µM	< 0.1 µM
CC[C@@]1(c2cccc(C(F)(F)F)c2)C2=C(NC3=NN=CC31)c1ccccc1C2=O (some centres not stated) [US20250313563, Compound 949742]	0.1 to 1 µM	0.1 to 1 µM
CC[C@@]1(c2cccc(C3=CN=NC3)c2)C2=C(CC(C)(C)NC2=O)NC2N=NC(C(F)(F)F)=C21 (some centres not stated) [US20250313563, Compound 948312]	0.1 to 1 µM	< 0.1 µM
CC[C@@]1(c2ccccc2)C2=CN=NC2NC2=C1C(=O)[C@@H](F)C(C)(C)C2 (some centres not stated) [US20250313563, Compound 957403]	1 to 5 µM	0.1 to 1 µM

The next lines start with the values.

IC50 [1]	IC50 [2]	Structure (SMILES)
< 0.1 µM	< 0.1 µM	CCC1(c2cccc(N3CCOc4ncccc43)c2)C2=CN=NC2NC2=C1C(=O)CC(C)(C)C2 (configuration not stated) [US20250313563, Compound 918279]
< 0.1 µM	< 0.1 µM	CC1(C)CC(=O)C2=C(C1)NC1=C(CN=N1)C21COC2(CN(C(=O)CC3CCC3)C2)C1 (configuration not stated) [US20250313563, Compound 947299]
< 0.1 µM and 0.1 to 1 µM	< 0.1 µM and 0.1 to 1 µM	CC1(C)CC(=O)C2=C(C1)NC1=C(CN=N1)C21CCN(S(=O)(=O)C2CC2)CC1 [US20250313563, Compound 901470]
< 0.1 µM	< 0.1 µM	CC1(C)CC(=O)C2=C(C1)NC1=C(CN=N1)[C@@]21CCN(S(=O)(=O)c2cccc(F)c2)C1 [US20250313563, Compound 951862]
0.1 to 1 µM	1 to 5 µM	CC(C)(C)CC1N=NC2=C1C1(CN(S(=O)(=O)CC3CC3)C1)C1=C(CC3(CCC3)CC1=O)N2 (configuration not stated) [US20250313563, Compound 107829]
1 to 5 µM	0.1 to 1 µM	Cc1nn(C)c(C)c1S(=O)(=O)N1CCC2(CC1)C1=C(N=NC1)NC1=C2C(=O)CC(C)(C)C1 [US20250313563, Compound 947257]
< 0.1 µM	< 0.1 µM	CC1(C)CC(=O)C2=C(C1)NC1=C(CN=N1)C21COC2(CN(C(=O)CC3CC3)C2)C1 (configuration not stated) [US20250313563, Compound 947298]
< 0.1 µM	< 0.1 µM	CC[C@@]1(c2cccc(-c3ccnn3C(C)C)c2)C2=CN=NC2NC2=C1C(=O)CC(C)(C)C2 (some centres not stated) [US20250313563, Compound 946091]
1 to 5 µM	0.1 to 1 µM	CCC1(c2cccc(N3CC(C)(C)C3C(C)C)c2)C2=CN=NC2NC2=C1C(=O)CC(C)(C)C2 (configuration not stated) [US20250313563, Compound 902969]
1 to 5 µM	0.1 to 1 µM	CC[C@]1(c2cccc(S(=O)(=O)C(C)C)c2)C2=CN=NC2NC2=C1C(=O)CC(C)(C)C2 (some centres not stated) [US20250313563, Compound 913134]
> 5 µM	> 5 µM	CC[C@@]1(c2cccc(C(F)(F)F)c2)C2=C(N=NC2)NC2=C1C(=O)N[C@H]2C [US20250313563, Compound 945381]
< 0.1 µM	< 0.1 µM	CCC1(c2cccc(Oc3ncccn3)c2)C2=CN=NC2NC2=C1C(=O)CC(C)(C)C2 (configuration not stated) [US20250313563, Compound 947400]
